SMILES strings stand for the structures.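 A five-concentration, 48-hour dose response in 96-well plates underlies each endpoint, interpolated linearly between surrounding concentrations. Here, GI50 denotes the concentration required for 50% inhibition of growth.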 The source made the active and inactive calls. Cut-off read from the data, not from the text of the source: active = GI50 up to about 1.1 µM and inactive = higher.

What all share (assay): growth of human tumour cells (NCI), 48 h
The subject of test [1] is OVCAR-5.
Test [2] relates to CCRF-CEM.
For test [3], the system named is MDA-N.
Test [4] has as its system K562.
In test [5] the test system is NCI-H522.
Test [6] deals with LOX IMVI.
Test [7] concerns EKVX.
Test [8] relates to HCC 2998.
Test [9] has as its system SF-539.
The subject of test [10] is MDA-MB-435.
The subject of test [11] is SW-620.
The test system of test [12] is Malme-3M.
Test [13] relates to MDA-MB-231.
For test [14], the system named is RPMI-8226.
Test [15] relates to HOP-92.
For test [16], the system named is SNB-19.
Test [17] has as its system PC-3.
The test system of test [18] is U-251.
Test [19] deals with SK-MEL-5.
The subject of test [20] is A549.

As to `O=c1cc(/C=C/c2ccc(O)c(O)c2)oc(/C=C/c2ccc(O)c(O)c2)c1`, the GI50 in test [1] was 17.2 µM (inactive); in test [2], 1.24 µM (inactive); in [3], 2.24 µM (inactive); in test [4] it was 2.11 µM (inactive); in [5] it was 1.24 µM (inactive); in test [6], 3.61 µM (inactive). Moreover, the GI50 in test [7] is 6.53 µM (inactive); in test [8] it was 2.49 µM (inactive); in test [9], 2.75 µM (inactive); in test [10], 1.43 µM (inactive); in test [11], 4.83 µM (inactive); in test [12], 5.06 µM (inactive). The GI50 in test [13] is 4.44 µM (inactive); in test [14], 6.58 µM (inactive); in test [15] it was 2.48 µM (inactive); in test [16] it was 3.82 µM (inactive); in [17], 5.73 µM (inactive); in test [18], 2.74 µM (inactive). Besides, the GI50 in test [19] is 3.19 µM (inactive); in test [20], 13.4 µM (inactive).

Consider `Clc1cccc(/C=N/C23CC4CC(CC(C4)C2)C3)c1Cl`, for which the GI50 in [1], in test [2], in [3], in [4], in test [5] and in test [6] was > 10 µM (inactive) throughout. The GI50 in test [7], in test [8], in test [9], in test [10], in test [11] and in [12] was > 10 µM (inactive) in each case. Also, the GI50 in test [13], in test [14], in test [15], in [16], in test [17] and in [18] was > 10 µM (inactive) each time. In addition, the GI50 in [19] and in test [20] was > 10 µM (inactive) each time.

For `Cc1cc(=O)oc2c(CN(CCCl)CCCl)c(O)ccc12`, the GI50 in test [1] was > 100 µM (inactive); in test [2] it was 2.47 µM (inactive); in [3], 78.2 µM (inactive); in test [4] it was 34.5 µM (inactive); in test [5], 14.5 µM (inactive); in test [6], 10.7 µM (inactive). In addition, the GI50 in test [7] is > 100 µM (inactive); in test [8], 28.4 µM (inactive); in test [9] it was 20.6 µM (inactive); in [10], 57.3 µM (inactive); in [11] it was 14 µM (inactive); in [12], 34.1 µM (inactive). The GI50 in [13] is > 100 µM (inactive); in test [14], 19.1 µM (inactive); in test [15], > 100 µM (inactive); in [16], 24.3 µM (inactive); in [17], 44 µM (inactive); in test [18] it was 38.4 µM (inactive). Moreover, the GI50 in [19] is 16.6 µM (inactive); in [20], 27.5 µM (inactive).

Consider `C=C(C)[C@@H]1CC[C@]2(C(=O)O)CC[C@]3(C)[C@H](CC[C@@H]4[C@@]5(C)CC[C@H](O)C(C)(C)[C@@H]5CC[C@]43C)[C@@H]12` [BETULINIC ACID], for which the GI50 was 12.4 µM (inactive) in test [1]; 5.15 µM (inactive) in test [2]; 16.7 µM (inactive) in [3]; 5.13 µM (inactive) in test [4]; 3.21 µM (inactive) in test [5]; 11.3 µM (inactive) in [6]. In addition, the GI50 is 16.1 µM (inactive) in [7]; 6.31 µM (inactive) in test [8]; 4.03 µM (inactive) in [9]; 13.7 µM (inactive) in test [10]; 18.2 µM (inactive) in test [11]; 7.59 µM (inactive) in test [12]. Moreover, the GI50 in test [13] was 3.91 µM (inactive); in [14] it was 7.36 µM (inactive); in test [15], 3.27 µM (inactive); in test [16], 13.7 µM (inactive); in [17], 7.48 µM (inactive); in test [18], 5.53 µM (inactive). For the same compound, the GI50 in test [19] is 4.19 µM (inactive); in test [20], 4.88 µM (inactive).

For the compound `CC(=O)NC1C(OCc2ccccc2)OC(CO)C(O)C1OC(C)C(=O)NC(C)C(=O)NC(CCC(=O)NCCCCNc1c2ccccc2nc2cccc([N+](=O)[O-])c12)C(N)=O` (stereo not given), the GI50 in test [1] is 0.336 µM (active); in [2], 0.114 µM (active); in test [3], 0.0232 µM (active); in test [4] it was 0.0106 µM (active); in [5], 0.0705 µM (active); in test [6], 0.216 µM (active). The GI50 in test [7] was 0.0625 µM (active); in [8], 0.013 µM (active); in [9], 0.0512 µM (active); in [10], 0.0325 µM (active); in test [11] it was 0.00741 µM (active); in test [12] it was 0.0348 µM (active). Moreover, the GI50 in [13] is 0.0237 µM (active); in test [14], 0.0118 µM (active); in [15] it was 0.0176 µM (active); in test [16], 0.021 µM (active); in test [17], 0.0989 µM (active); in test [18], 0.042 µM (active). Besides, the values for the GI50 in test [19] and in test [20] were 0.0356 µM (active) and 0.0404 µM (active), respectively.

As for `O=Cc1ccc(-c2nccc3c2[nH]c2ccccc23)o1`, the GI50 is 12.3 µM (inactive) in test [1]; > 100 µM (inactive) in test [2]; > 100 µM (inactive) in test [3]; > 100 µM (inactive) in test [4]; 64.4 µM (inactive) in [5]; > 56.2 µM (inactive) in test [6]. The GI50 is > 100 µM (inactive) in test [7]; > 91.6 µM (inactive) in test [8]; > 100 µM (inactive) in [9]; > 100 µM (inactive) in test [10]; > 100 µM (inactive) in test [11]; > 100 µM (inactive) in test [12]. Moreover, the GI50 in test [13] was > 85.1 µM (inactive); in test [14], > 81.8 µM (inactive); in [15], 44.6 µM (inactive); in test [16], > 100 µM (inactive); in test [17], 98.2 µM (inactive); in [18], 68.9 µM (inactive). The figures for the GI50 in test [19] and in [20] were 82.2 µM (inactive) and 73.1 µM (inactive), respectively.

On to `C=CC(=O)c1ccc2c(c1)OCCOCCOCCOCCOCCO2`, for which the GI50 is 33.4 µM (inactive) in test [1]; > 27.5 µM (inactive) in [2]; 39.2 µM (inactive) in [3]; 35.6 µM (inactive) in test [4]; 9.48 µM (inactive) in test [5]; 17.7 µM (inactive) in test [6]. For the same compound, the GI50 in [7] is 24 µM (inactive); in test [8], > 100 µM (inactive); in test [9], 17.7 µM (inactive); in [10], 19.5 µM (inactive); in test [11] it was 18.8 µM (inactive); in test [12], 18.5 µM (inactive). Further, the GI50 is 21.3 µM (inactive) in test [13]; > 38.8 µM (inactive) in test [14]; 17 µM (inactive) in test [15]; > 100 µM (inactive) in test [16]; 30.9 µM (inactive) in test [17]; > 57.5 µM (inactive) in test [18]. Also, the values for the GI50 in test [19] and in [20] were 58.7 µM (inactive) and > 100 µM (inactive), respectively.

For the compound `Clc1cc(OCc2nn3c(Cc4ccccc4)nnc3s2)c(Cl)cc1OCc1nn2c(Cc3ccccc3)nnc2s1`, the GI50 was > 100 µM (inactive) in [1]; 12.3 µM (inactive) in test [2]; 79.4 µM (inactive) in test [3]; 4.93 µM (inactive) in test [4]; > 100 µM (inactive) in test [5]; > 100 µM (inactive) in test [6]. Besides, the GI50 in [7] was 54.1 µM (inactive); in [8] it was > 100 µM (inactive); in [9], 42.2 µM (inactive); in test [10], > 100 µM (inactive); in [11], > 100 µM (inactive); in test [12] it was > 100 µM (inactive). For the same compound, the GI50 was 26.4 µM (inactive) in test [13]; 8.89 µM (inactive) in test [14]; 18.8 µM (inactive) in test [15]; 27.9 µM (inactive) in [16]; 78.3 µM (inactive) in [17]; 31.6 µM (inactive) in test [18]. For the same compound, the GI50 was 41.8 µM (inactive) in [19] and 94.8 µM (inactive) in test [20].

On to `O=C1OCOC2(CCCC2)C1c1ccccc1` (stereo not given), for which the GI50 in test [1], in [2], in [3], in [4], in [5] and in test [6] was > 100 µM (inactive) throughout. Moreover, the GI50 in test [7], in test [8], in test [9], in [10], in [11] and in [12] was > 100 µM (inactive) each time. Also, the GI50 in test [13], in test [14], in test [15], in test [16], in test [17] and in test [18] was > 100 µM (inactive) in each case. In addition, the GI50 in [19] and in test [20] was > 100 µM (inactive) each time.

In the case of `Brc1ccc2c(-c3nc(-c4c[nH]c5ccc(Br)cc45)cs3)c[nH]c2c1`, the GI50 in test [1] is 2.96 µM (inactive); in [2] it was 4.68 µM (inactive); in [3], 4.45 µM (inactive); in test [4], 3.44 µM (inactive); in test [5], 1.95 µM (inactive); in test [6], 2.32 µM (inactive). Moreover, the GI50 is 1.24 µM (inactive) in [7]; 2.48 µM (inactive) in test [8]; 5.06 µM (inactive) in test [9]; 5.26 µM (inactive) in [10]; 4.61 µM (inactive) in [11]; 4.24 µM (inactive) in test [12]. Besides, the GI50 was 3.69 µM (inactive) in [13]; 3.43 µM (inactive) in test [14]; 3.44 µM (inactive) in [15]; 4.25 µM (inactive) in test [16]; 6 µM (inactive) in test [17]; 4.43 µM (inactive) in test [18]. In addition, the GI50 in [19] was 4.51 µM (inactive); in test [20] it was 4.14 µM (inactive).
